Laboratory results as given in publication PMC9112895, “Selective Inhibition of Plasmodium falciparum ATPase 6 by Artemisinins and Identification of New Classes of Inhibitors after Expression in Yeast” (Antimicrobial Agents and Chemotherapy, 2022).

Columns and labels:
[1] = target: SERCA1a (Oryctolagus cuniculus, UniProt P04191); experiment: In vitro activity assay, SERCA1a (membrane-bound); type: biochemical, rabbit; set-up: containing the SERCA1a coding region from rabbit skeletal fast-twitch muscle; expressed in transfected cells; details: parallel in vitro activity assay, 100 µM (Fig. S1D)
Procedure: Activity assays were performed as described by Longland et al. ([55]) and LeBel et al. ([56]), except that the reaction mixtures were incubated at 30°C instead of 37°C. […] Then, 5.8 mM ATP was added and incubated for an additional 15 min at 30°C. The reaction was stopped with 0.5 mL 6.5% trichloroacetic acid (TCA) on ice, and the mixture was centrifuged at 4°C for 10 min at 16,000 × g; 0.5 mL of the supernatant was added to 1.5 mL of copper acetate buffer (0.25% copper sulfate pentahydrate, 4.6% sodium acetate trihydrate, dissolved in 2 M acetic acid [pH 4.0]) and mixed by vortex-mixing before the addition of 0.25 mL of 5% ammonium molybdate, followed by 0.25 mL METOL buffer (2% p-methyl-aminophenol sulfate, 5% sodium sulfite). Samples were incubated for 10 min, and the absorbance was measured at 870 nm in a spectrophotometer. The Pi standard was 0.4387 g/100 mL KH2PO4.

[2] = target: PfATP6 (Plasmodium falciparum, UniProt Q08853); experiment: cell-based; type: cell-based; set-up: pUGpd containing the yeast-optimized coding region of PfATP6 from Plasmodium falciparum; expressed in transfected cells; host or cells: Saccharomyces cerevisiae K667 and K667Δpdr5::HIS
Procedure: The screening assay used here was developed from the protocol used by Pulcini et al. ([13]). A single colony of the yeast strain to be screened was picked and grown in 5 mL of selective medium until stationary phase was reached. The culture was diluted 100-fold in ampicillin-supplemented yeast extract-peptone-dextrose (YPD) medium to an OD at 620 nm (OD620) equivalent to that of lag phase. YPD medium was supplemented with an appropriate concentration of calcium, depending on the transformed strain. […] The optimal calcium concentration was periodically monitored and, if necessary, adjusted using a calcium concentration range of 10 to 30 mM. A final volume of 200 μL of the yeast culture was added to each well of a 96-well plate, with 5 technical replicates included per inhibitor. All inhibitors were dissolved in dimethyl sulfoxide (DMSO) unless otherwise stated. […] The 96-well plates were incubated at 30°C for 42 h. The yeast growth was estimated from the absorbance at 620 nm in a Tecan plate reader. Growth was normalized with the no-drug control to present data as percent growth. The data collected were analyzed using GraphPad Prism v9.0 (GraphPad software, San Diego, CA, U.S.A).

Chain of PfATP6 (Q08853 whole entry): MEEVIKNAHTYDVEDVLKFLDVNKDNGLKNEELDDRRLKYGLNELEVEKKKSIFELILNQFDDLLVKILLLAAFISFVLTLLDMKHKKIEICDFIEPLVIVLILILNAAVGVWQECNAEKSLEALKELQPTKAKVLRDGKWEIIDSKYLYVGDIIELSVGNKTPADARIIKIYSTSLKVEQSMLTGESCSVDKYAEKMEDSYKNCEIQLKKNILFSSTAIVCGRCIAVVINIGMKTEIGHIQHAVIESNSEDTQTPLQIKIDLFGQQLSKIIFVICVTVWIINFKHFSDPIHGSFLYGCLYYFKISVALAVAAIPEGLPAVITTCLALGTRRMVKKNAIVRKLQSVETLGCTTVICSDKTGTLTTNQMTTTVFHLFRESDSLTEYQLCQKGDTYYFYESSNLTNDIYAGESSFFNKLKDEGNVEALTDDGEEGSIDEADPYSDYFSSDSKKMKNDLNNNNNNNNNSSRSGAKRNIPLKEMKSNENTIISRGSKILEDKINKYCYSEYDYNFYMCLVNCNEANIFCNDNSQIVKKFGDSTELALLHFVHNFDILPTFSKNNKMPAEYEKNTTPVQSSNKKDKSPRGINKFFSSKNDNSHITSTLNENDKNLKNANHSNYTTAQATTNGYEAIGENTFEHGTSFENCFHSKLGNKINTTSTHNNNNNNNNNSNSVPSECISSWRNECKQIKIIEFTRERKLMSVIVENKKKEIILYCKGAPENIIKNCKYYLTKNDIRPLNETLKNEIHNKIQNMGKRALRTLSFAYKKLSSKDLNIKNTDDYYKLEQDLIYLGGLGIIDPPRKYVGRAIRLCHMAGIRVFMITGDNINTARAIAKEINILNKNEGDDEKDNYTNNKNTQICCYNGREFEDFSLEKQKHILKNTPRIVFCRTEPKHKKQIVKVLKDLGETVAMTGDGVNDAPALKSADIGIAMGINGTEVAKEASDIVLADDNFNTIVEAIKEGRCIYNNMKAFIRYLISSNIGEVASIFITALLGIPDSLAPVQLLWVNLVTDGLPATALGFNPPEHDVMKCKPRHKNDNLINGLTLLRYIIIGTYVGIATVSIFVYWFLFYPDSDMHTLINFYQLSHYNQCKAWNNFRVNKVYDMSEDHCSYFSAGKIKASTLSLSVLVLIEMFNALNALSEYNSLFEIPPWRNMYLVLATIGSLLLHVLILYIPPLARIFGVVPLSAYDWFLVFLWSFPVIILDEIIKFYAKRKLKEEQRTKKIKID
Chain of SERCA1a (P04191 other isoform, or with tags, fused parts or gaps): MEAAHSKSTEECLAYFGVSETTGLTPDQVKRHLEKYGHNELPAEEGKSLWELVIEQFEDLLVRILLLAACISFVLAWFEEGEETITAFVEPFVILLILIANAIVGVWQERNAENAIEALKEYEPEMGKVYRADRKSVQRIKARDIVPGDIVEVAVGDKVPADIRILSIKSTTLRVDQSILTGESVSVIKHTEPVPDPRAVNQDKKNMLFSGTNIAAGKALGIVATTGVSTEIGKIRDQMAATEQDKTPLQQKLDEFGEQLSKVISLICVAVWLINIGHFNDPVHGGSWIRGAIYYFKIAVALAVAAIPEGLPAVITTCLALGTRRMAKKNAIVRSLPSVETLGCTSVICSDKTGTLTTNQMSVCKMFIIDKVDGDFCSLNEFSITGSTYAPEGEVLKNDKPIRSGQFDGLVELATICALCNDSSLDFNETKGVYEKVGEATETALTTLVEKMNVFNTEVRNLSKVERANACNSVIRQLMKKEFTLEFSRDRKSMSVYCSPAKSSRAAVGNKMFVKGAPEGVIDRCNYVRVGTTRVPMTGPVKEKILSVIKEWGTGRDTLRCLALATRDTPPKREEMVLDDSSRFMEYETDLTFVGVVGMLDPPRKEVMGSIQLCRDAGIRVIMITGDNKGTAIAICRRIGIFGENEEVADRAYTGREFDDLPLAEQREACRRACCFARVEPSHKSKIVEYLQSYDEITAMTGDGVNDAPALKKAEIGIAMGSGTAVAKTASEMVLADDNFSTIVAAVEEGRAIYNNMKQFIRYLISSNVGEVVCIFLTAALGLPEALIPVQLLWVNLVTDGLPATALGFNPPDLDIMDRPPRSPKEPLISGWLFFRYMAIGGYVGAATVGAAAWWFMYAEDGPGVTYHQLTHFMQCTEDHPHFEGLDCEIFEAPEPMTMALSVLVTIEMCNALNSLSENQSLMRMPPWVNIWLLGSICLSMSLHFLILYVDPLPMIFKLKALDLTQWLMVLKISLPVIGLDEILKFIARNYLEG

`CC(=O)C1=C(O)[C@@H]2[C@H]3c4c[nH]c5cccc(c45)C[C@H]3C(C)(C)N2C1=O` [CPA, cyclopiazonic acid] was tested, and the “inhibition of purified SERCA1a activity” value [1] was “apparent inhibition”, the “approximate IC10” value ([2]; fitness cost assays, drug pressure) was about 5 µM and the IC80 ([2]; read-out: approximate yeast IC80) was about 5 µM.
